The subject of data set [1] is Mus musculus. The experiment in a line: Upregulation of PPARalpha expression in liver of high fat diet-induced nonalcoholic steatohepatitis C57BL/6J mouse model at 3 mg/kg, po and measured after 24 hrs by quantitative real time PCR analysis. The data set is classed as functional, organism-based. In general terms: In qPCR the cycle at which signal appears reflects the starting amount.

The target in data set [2] is T1, Peroxisome proliferator-activated receptor alpha (Mus musculus) (UniProt P23204).
T1 sequence (whole entry): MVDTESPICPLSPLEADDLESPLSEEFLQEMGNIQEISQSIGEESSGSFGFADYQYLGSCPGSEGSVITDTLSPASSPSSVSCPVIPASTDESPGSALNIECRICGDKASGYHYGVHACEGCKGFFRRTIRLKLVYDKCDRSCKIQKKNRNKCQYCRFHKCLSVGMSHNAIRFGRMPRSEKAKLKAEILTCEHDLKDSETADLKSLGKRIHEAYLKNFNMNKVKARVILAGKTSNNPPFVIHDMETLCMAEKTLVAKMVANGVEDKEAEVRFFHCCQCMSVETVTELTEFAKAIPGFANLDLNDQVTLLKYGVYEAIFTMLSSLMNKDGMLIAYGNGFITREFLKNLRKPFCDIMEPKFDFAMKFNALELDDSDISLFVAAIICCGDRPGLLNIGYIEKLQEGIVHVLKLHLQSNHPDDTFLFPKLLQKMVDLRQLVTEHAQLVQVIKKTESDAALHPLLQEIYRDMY
The experiment in a line: In vivo agonist activity at PPARalpha in high fat diet-induced nonalcoholic steatohepatitis C57BL/6J mouse model assessed as trans-repression of ApoC3 mRNA expression in liver administered at 3 mg/kg, po and measured after 24 hrs by quantitative real time PCR analysis. The data set is classed as functional, organism-based.

For data set [3], the target named is T1, Peroxisome proliferator-activated receptor alpha (Mus musculus). Briefly: In vivo agonist activity at PPARalpha in high fat diet-induced nonalcoholic steatohepatitis C57BL/6J mouse model assessed as increase in Cyp4a3 mRNA expression in liver administered at 3 mg/kg, po and measured after 24 hrs by quantitative real time PCR analysis. The class given is functional, organism-based.

Data set [4] deals with Mus musculus. Briefly: Hypolipidemic activity in high fat diet-induced nonalcoholic steatohepatitis C57BL/6J mouse model assessed as reduction in plasma triglyceride level at 3 mg/kg, po administered via gavage and measured after 24 hrs. The data set is classed as functional.
The target in data set [5] is T1, Peroxisome proliferator-activated receptor alpha (Mus musculus). Briefly: In vivo agonist activity at PPARalpha in high fat diet-induced nonalcoholic steatohepatitis C57BL/6J mouse model assessed as increase in ACOX1 mRNA expression in liver administered at 3 mg/kg, po and measured after 24 hrs by quantitative real time PCR analysis. The data set is classed as functional, organism-based.

For data set [6], the target named is T2, Peroxisome proliferator-activated receptor delta (Homo sapiens, UniProt Q03181).
T2 sequence (Q03181 whole entry): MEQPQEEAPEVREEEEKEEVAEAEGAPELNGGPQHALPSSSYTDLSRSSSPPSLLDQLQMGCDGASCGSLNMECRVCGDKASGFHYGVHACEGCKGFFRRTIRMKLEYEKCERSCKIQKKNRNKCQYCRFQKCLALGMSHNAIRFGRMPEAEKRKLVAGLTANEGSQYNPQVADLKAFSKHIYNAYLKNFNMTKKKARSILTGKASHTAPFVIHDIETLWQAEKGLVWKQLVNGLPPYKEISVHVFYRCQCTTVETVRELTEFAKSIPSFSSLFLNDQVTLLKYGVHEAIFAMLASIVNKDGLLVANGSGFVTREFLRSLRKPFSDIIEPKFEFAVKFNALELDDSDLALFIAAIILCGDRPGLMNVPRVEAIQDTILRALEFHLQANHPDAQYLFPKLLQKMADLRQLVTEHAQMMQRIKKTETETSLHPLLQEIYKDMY
The experiment in a line: Agonist activity at Gal4-fused human PPARdelta expressed in monkey CV1 cells assessed as receptor transactivation incubated for 45 hrs by luciferase reporter gene assay. The class given is cell-based, CV-1. On the technique in general: In a reporter assay the amount or activity of a reporter protein is the signal.

In data set [7] the target is T3, Peroxisome proliferator-activated receptor alpha (Homo sapiens, UniProt Q07869).
T3 sequence (Q07869 whole entry): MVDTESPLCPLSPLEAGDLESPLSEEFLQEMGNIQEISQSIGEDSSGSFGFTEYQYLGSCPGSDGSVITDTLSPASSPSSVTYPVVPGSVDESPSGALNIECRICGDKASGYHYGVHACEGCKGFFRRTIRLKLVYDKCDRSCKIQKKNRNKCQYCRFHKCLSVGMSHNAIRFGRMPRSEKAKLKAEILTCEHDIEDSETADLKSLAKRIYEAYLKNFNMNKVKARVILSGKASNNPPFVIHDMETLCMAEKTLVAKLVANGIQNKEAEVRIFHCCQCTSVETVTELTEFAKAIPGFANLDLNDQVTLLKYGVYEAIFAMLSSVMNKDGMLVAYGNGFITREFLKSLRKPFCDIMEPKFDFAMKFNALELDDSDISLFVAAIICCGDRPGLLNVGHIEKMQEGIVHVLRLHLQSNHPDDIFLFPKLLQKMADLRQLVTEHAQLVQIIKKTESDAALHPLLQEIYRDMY
The experiment in a line: Agonist activity at Gal4-fused human PPARalpha co-expressed with RXRalpha in monkey CV1 cells assessed as PPRE transcriptional activation incubated for 45 hrs by luciferase reporter gene assay. The data set is classed as cell-based, CV-1.

Data set [8] has as its target T1, Peroxisome proliferator-activated receptor alpha (Mus musculus). Briefly: In vivo agonist activity at PPARalpha in high fat diet-induced nonalcoholic steatohepatitis C57BL/6J mouse model assessed as increase in LPL mRNA expression in liver administered at 3 mg/kg, po and measured after 24 hrs by quantitative real time PCR analysis. The data set is classed as functional, organism-based.

Data set [9] concerns the target T4, Peroxisome proliferator-activated receptor gamma (Homo sapiens, UniProt P37231).
T4 sequence (P37231 whole entry): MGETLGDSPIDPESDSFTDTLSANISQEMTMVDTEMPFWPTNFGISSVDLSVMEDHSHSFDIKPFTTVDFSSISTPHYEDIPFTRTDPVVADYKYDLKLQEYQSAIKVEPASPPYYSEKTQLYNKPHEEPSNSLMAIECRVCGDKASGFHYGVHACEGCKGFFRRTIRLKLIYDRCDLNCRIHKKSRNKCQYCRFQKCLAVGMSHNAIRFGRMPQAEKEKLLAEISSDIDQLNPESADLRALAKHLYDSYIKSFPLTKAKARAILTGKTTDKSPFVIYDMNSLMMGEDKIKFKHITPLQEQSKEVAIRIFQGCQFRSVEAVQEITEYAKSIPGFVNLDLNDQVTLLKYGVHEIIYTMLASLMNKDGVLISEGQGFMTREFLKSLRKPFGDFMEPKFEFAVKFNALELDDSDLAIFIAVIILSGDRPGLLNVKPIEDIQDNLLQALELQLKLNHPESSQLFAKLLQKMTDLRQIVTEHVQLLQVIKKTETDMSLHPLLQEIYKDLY
The experiment in a line: Agonist activity at Gal4-fused human PPARgamma expressed in monkey CV1 cells assessed as receptor transactivation incubated for 45 hrs by luciferase reporter gene assay. The class given is cell-based, CV-1.

In data set [10] the target is T5, Peroxisome proliferator-activated receptor alpha (Mus musculus, UniProt P23204).
T5 sequence (P23204 whole entry): T1 sequence (whole entry)
Briefly: Agonist activity at Gal4-fused mouse PPARalpha co-expressed with RXRalpha in monkey CV1 cells assessed as PPRE transcriptional activation incubated for 45 hrs by luciferase reporter gene assay. The data set is classed as cell-based, CV-1.

The nature of data set [11]: Toxicity in high fat diet-induced nonalcoholic steatohepatitis C57BL/6J mouse model assessed as increase in plasma glucose level at 3 mg/kg, po administered once daily for 7 days and measured after 4 days. The class given is organism-based. Particulars: in vivo, 96 h, time 4 day.
Data set [12] has as its target T1, Peroxisome proliferator-activated receptor alpha (Mus musculus). Briefly: In vivo agonist activity at PPARalpha in high fat diet-induced nonalcoholic steatohepatitis C57BL/6J mouse model assessed as increase in LPL mRNA expression in liver administered at 3 mg/kg, po administered once daily for 7 days by quantitative real time PCR analysis. The class given is functional, organism-based. Particulars: time 7.0 day.

The target is the same in data set [13]. The experiment in a line: In vivo agonist activity at PPARalpha in high fat diet-induced nonalcoholic steatohepatitis C57BL/6J mouse model assessed as increase in Cyp4a3 mRNA expression in liver administered at 3 mg/kg, po administered once daily for 7 days by quantitative real time PCR analysis. The data set is classed as functional, organism-based. Particulars: time 7.0 day.

Data set [14] has the same target. Briefly: In vivo agonist activity at PPARalpha in high fat diet-induced nonalcoholic steatohepatitis C57BL/6J mouse model assessed as increase in mACADM gene expression in liver at 3 mg/kg, po administered once daily for 7 days by quantitative real time PCR analysis. The data set is classed as functional, organism-based. The note with it: time 7.0 day.
For data set [15] the target is unchanged. The experiment in a line: In vivo agonist activity at PPARalpha in high fat diet-induced nonalcoholic steatohepatitis C57BL/6J mouse model assessed as increase in mCPT1A gene expression in liver at 3 mg/kg, po administered once daily for 7 days and measured at >3 days by quantitative real time PCR analysis. The data set is classed as functional, organism-based. Particulars: time day >3.

Activity calls are given as the source filed them. The calls are words filed in the database; no cut-off is given here.

As a reminder, the inhibition in vivo is the relative decrease from the control value, in per cent. As to `COc1ccc(Cn2c(CCCc3ccc(OC(C)(C)C(=O)O)cc3)nn(Cc3ccc(C(C)(C)C)cc3)c2=O)cc1`, the result (in the data set with Mus musculus [1]; in [2]; in data set [3]; in data set [5]) was Active. Also, the inhibition in vivo at 3 mg/kg with Mus musculus [4] was at least 50%.

What is called EC50 is the concentration that produces a half-maximal response. In the case of `Cc1ccc(Cn2nc(CCCc3ccc(OC(C)(C)C(=O)O)cc3)n(Cc3ccc(C)cc3)c2=O)cc1`, the outcome (in the data set with Mus musculus [1]; in data set [8]) was Active. Also, the EC50 in data set [6] is above 10 µM; in data set [7], 0.00085 µM; in data set [9] it was above 10 µM. For the same molecule, the result in data set [2], in [3] and in [5] was inactive. Also, the inhibition in vivo at 3 mg/kg in the data set with Mus musculus [4] is at least 50%.

On to `C=Cc1ccc(Cn2nc(CCCc3ccc(OC(C)(C)C(=O)O)cc3)n(Cc3ccc(C)cc3)c2=O)cc1`, for which the concentration giving a half-maximal response (EC50) is 0.02 µM in [10], above 10 µM in data set [6], 0.012 µM in data set [7] and above 10 µM in [9]. Also, the result (in the data set on Mus musculus [1]; in data set [2]; in data set [8]; in data set [3]; in data set [5]) was Active. In the data set on Mus musculus [4], the inhibition in vivo at 3 mg/kg was at least 50%.

In the case of `COc1cccc(Cn2c(CCCc3ccc(OC(C)(C)C(=O)O)cc3)nn(Cc3ccc(C)cc3)c2=O)c1`, the outcome (in the data set on Mus musculus [1]; in [2]; in data set [8]; in [3]; in [5]) was Active. For the same molecule, the 50% effective concentration (EC50) in [6] was above 10 µM; in [7], 0.001 µM; in [9] it was above 10 µM. The inhibition in vivo at 3 mg/kg in the data set on Mus musculus [4] was at least 50%.

Consider `Cc1ccc(Cn2nc(CCCc3ccc(OC(C)(C)C(=O)O)cc3)n(Cc3ccc(Cl)cc3)c2=O)cc1`, for which the EC50 in data set [10] was 0.01 µM; in data set [6], above 10 µM; in data set [7], 0.001 µM; in [9] it was above 10 µM. For the same molecule, the outcome (in the data set on Mus musculus [1]; in [2]; in data set [8]; in data set [3]; in [5]) was Active. Besides, in the data set with Mus musculus [4], the inhibition in vivo at 3 mg/kg is at least 50%.

On to `CC(C)(Sc1ccc(CCN(CCCCC2CCCCC2)C(=O)NC2CCCCC2)cc1)C(=O)O` [GW7647], for which the Activity result in data set [11] was “Toxic”. For the same molecule, the result in [12], in data set [3] and in data set [5] was inactive. Also, the result in data set [13], in data set [14] and in [15] was Active. Moreover, the inhibition in vivo at 3 mg/kg in the data set on Mus musculus [4] is at least 50%.

Take `COc1cc(Cn2c(CCCc3ccc(OC(C)(C)C(=O)O)cc3)nn(Cc3ccc(C)cc3)c2=O)cc(OC)c1OC`: the outcome (in the data set on Mus musculus [1]; in data set [2]; in [8]; in data set [3]; in data set [5]) was Active. Besides, the EC50 in [6] and in [9] was above 10 µM in each case. The inhibition in vivo at 3 mg/kg with Mus musculus [4] is at least 50%.

As to `Cc1ccc(Cn2nc(CCCc3ccc(OC(C)(C)C(=O)O)cc3)n(Cc3ccccc3)c2=O)cc1`, the result (in the data set on Mus musculus [1]; in data set [2]; in data set [8]; in [3]; in data set [5]) was Active. The EC50 in data set [6] and in data set [9] was above 10 µM in each case. The inhibition in vivo at 3 mg/kg with Mus musculus [4] is at least 50%.

As to `Cc1ccc(Cn2nc(CCCc3ccc(OC(C)(C)C(=O)O)cc3)n(Cc3ccc(F)cc3)c2=O)cc1`, the result (with Mus musculus [1]; in data set [2]; in data set [8]; in [3]; in data set [5]) was Active. In addition, the 50% effective concentration (EC50) in [6] is above 10 µM; in data set [7], 0.00095 µM; in [9] it was above 10 µM. Also, the inhibition in vivo at 3 mg/kg in the data set on Mus musculus [4] was at least 50%.

The values are drawn from ChEMBL document CHEMBL4811278, “Discovery of novel modulators for the PPARα (peroxisome proliferator activated receptor α): Potential therapies for nonalcoholic fatty liver disease” (Bioorg Med Chem, 2021).
